pIC50: −log10 of the molar value.
Legend:
[1] = test system: Human vascular smooth muscle cells (SMC); assay: Inhibition of vascular smooth muscle cell proliferation (PDGF-stimulated, WST-1); assay type: cell-based; conditions: 5 ng/ml PDGF, 48-hr treatment
Protocol: Human vascular smooth muscle cells (SMC, Bio-whittaker, USA) were plated in 100 μl of DMEM (Dulbelcco's Modified Eagle Medium) containing 10% FBS (fetal bovine serum) in 96-well plates at 5×10^3 cells/well and cultured for 24 hr at 37° C. under 10% CO2 atmosphere. Afterwards, cells were starved in 100 μl of DMEM containing 0.2% FBS for 72 hr. Then, cells were incubated in 100 μl of DMEM containing 5% FBS supplemented with 5 ng/ml PDGF (platelet derived growth factor, ProSpec, Israel) and then treated with indicated concentrations of chemicals in DMSO synthesized in Examples. The final concentration of DMSO was adjusted to 1%. After 48-hr treatment, medium was changed with a fresh 5% FBS DMEM and 10 μl/well of premix WST-1 (Takara, Japan) was added for analyzing cell proliferation, followed by 2-hr incubation. Using a ELISA microplate reader, the OD (optical density) values at 450 nm were measured. Compared with no-treatment control, the compounds of this invention were evaluated in terms of their cell proliferation activity.

[2] = test system: NCI-H460 (lung cancer cell line); assay: Cytotoxicity to tumor cells (WST-1), NCI-H460; assay type: cell-based
Protocol: (§1) To verify whether the compounds of this invention could be used as anticancer agents, their cytotoxicity against tumor cells were examined. NCI-H460 (lung cancer cell line, ATCC, USA) and MDA-MB 435S (breast cancer cell line, ATCC, USA) were used. The cancer cell lines were plated in 100 μl of DMEM (Dulbelcco's Modified Eagle Medium) containing 10% FBS (fetal bovine serum) in 96-well plates at 5×10^3 cells/well and cultured for 24 hr at 37° C. under 10% CO2 atmosphere. After change of medium with 100 μl of DMEM containing 5% FBS, cells were treated with the indicated concentration of the compounds in DMSO. The final concentration of DMSO in medium was adjusted to 1%. Following 48-hr treatment, medium was changed with a fresh 5% FBS DMEM and 10 μl/well of premix WST-1 (Takara, Japan) was added for analyzing cell proliferation, followed by 2-hr incubation. Using a ELISA microplate reader, the OD (optical density) values at 450 nm were measured. Compared with no-treatment control, the compounds of this invention were evaluated in terms of their cytotoxicity to cancer cell lines.

[3] = test system: MDA-MB 435S (breast cancer cell line); assay: Cytotoxicity to tumor cells (WST-1), MDA-MB 435S; assay type: cell-based; conditions: 48-hr treatment
Protocol: as §1

[4] = test system: cancer cell lines; assay: Cytotoxicity to tumor cells (WST-1), cancer cell lines collectively; assay type: cell-based; conditions: cancer cell lines (NCI-H460, MDA-MB 435S) not distinguished in the sentence; read-out: IC50 against cancer cell lines
Protocol: as §1

[5] = test system: neointima thickening of balloon-injured left common carotid artery; assay: Inhibition of restenosis using balloon injury of carotid artery; conditions: Sprague-Dawley rats, intraperitoneal, 2 weeks after balloon injury
Protocol: To examine restenosis inhibition effects of the present compounds, rat restenosis models were constructed using balloon injury of carotid artery.
Sprague-Dawley male rats with body weights of 350±30 g (12-14 week age, DaehanBiolink, Inc., Korea) were adapted to surrounding environments for one week. For each experiment, 7-10 rats were used. Rats were anesthetized by intraperitoneal administration of a mixture of ketamine (70 mg/kg) and xylazine hydrochloride (33 mg/kg) and their (left common carotid artery, CCA) and branches of internal carotid artery (ICA) and external carotid artery (ECA) were exposed by neck central compartment dissection. The proximal portion of the left common carotid artery and distal portion of the internal carotid artery were temporarily ligated with suture to block bloodstream, the distal portion of the external carotid artery was ligated. The wall of the external carotid artery between both sutures was partially dissected. 2F Fogarty balloon (Edwards Lifesciences) was inserted and the ligation of the left common carotid artery was then unraveled, followed by advancing the balloon along the direction of the ascending aorta. The balloon was inflated and pulled out at the extent that resistance was allowed at the terminal portion of the common carotid artery of the aortic arch, such that the lesion of the left common carotid artery was induced. […]

[6] = Homo sapiens, NCI-H460, 48-hr treatment

Compound | pIC50 [1] | pIC50 ([2]; 48-hr treatment) | pIC50 [3] | pIC50 [2, 6] | pIC50 ([3]; Homo sapiens, MDA-MB-435S) | pIC50 [4] | neointima thickening compared with the non-balloon-injured right common carotid artery ([5]; histology (FIG. 1c vs FIG. 1a)) | reduced neointima thickening compared with the balloon-injured left common carotid artery ([5]; dispersed in polyoxyethylated castor oil, histology (FIG. 1c vs FIG. 1b))
CC(=O)c1c(Nc2ccc(Br)cc2)[nH]c2cc(Br)cc(Br)c2c1=O [BD001] | 6.68 | 5.82 | 5.74 |  |  |  |  | 
CC(=O)c1c(Nc2ccc(Br)cc2Cl)[nH]c2c([N+](=O)[O-])cc(Cl)cc2c1=O [BD002] |  | 6.40 | 6.52 |  |  |  |  | 
CC(=O)c1c(Nc2ccc(F)c(F)c2F)[nH]c2c(Cl)ccc(C)c2c1=O [BD003] |  | 6.40 | 6.22 |  |  |  |  | 
CC(=O)c1c(Nc2ccc(F)c(F)c2F)[nH]c2c(F)cc(F)cc2c1=O [BD004] |  | 6.07 | 6.05 |  |  |  |  | 
CC(=O)c1c(Nc2ccc(F)cc2Cl)[nH]c2c(Cl)ccc(C)c2c1=O [BD005] | 6.55 | 6.22 | 4.60 |  |  |  |  | 
CC(=O)c1c(Nc2ccc(C)cc2)[nH]c2c([N+](=O)[O-])cccc2c1=O [BD006] | 6.10 | 5.82 | 5.96 |  |  |  |  | 
CC(=O)c1c(Nc2ccc(F)cc2)[nH]c2c(F)cc(F)cc2c1=O [BD007] | 6.54 | 5.80 | 5.96 |  |  |  |  | 
CC(=O)c1c(Nc2cccc(Cl)c2)[nH]c2c(C)cccc2c1=O [BD008] | 5.79 | 5.14 | 5.19 |  |  |  |  | 
CC(=O)c1c(Nc2cccc(F)c2)[nH]c2c(Cl)ccc(F)c2c1=O [BD009] | 6.20 | 5.59 | 5.28 |  |  |  |  | 
CC(=O)c1c(Nc2ccc(Cl)cc2Cl)[nH]c2c(Cl)ccc([N+](=O)[O-])c2c1=O [BD010] | 5.19 | 4.60 | 4.92 |  |  |  |  | 
O=C(Nc1ccc(Cl)cc1Cl)c1c(Nc2ccccc2)[nH]c2c(Cl)cc(Cl)cc2c1=O [BD030, 6,8-dichloro-4-oxo-2-phenylamino-1,4-dihydro-quinoline-3-carboxylic acid (2,4-dichloro-phenyl)-amide] |  |  |  | 6.00 | 6.52 | > 6.00 | slightly increased neointima thickening | about 80%
O=C(Nc1ccc(Cl)cc1Cl)c1c(Nc2ccc(Cl)cc2Cl)[nH]c2c(Cl)cc(Cl)cc2c1=O [BD031, 6,8-dichloro-2-(2,4-dichloro-phenylamino)-4-oxo-1,4-dihydro-quinoline-3-carboxylic acid (2,4-dichloro-phenyl)-amide] |  |  |  | 6.68 | > 6.80 | > 6.00 |  | 
CCC(=O)c1c(Nc2ccc(Cl)cc2F)[nH]c2c(Cl)ccc([N+](=O)[O-])c2c1=O [BD032] | 6.85 | 5.48 | 5.46 |  |  |  |  | 
CCC(=O)c1c(Nc2cccc(Cl)c2Cl)[nH]c2c(Cl)ccc([N+](=O)[O-])c2c1=O [BD033] | 6.86 | 5.49 | 5.40 |  |  |  |  | 
CCC(=O)c1c(Nc2ccc(F)c(F)c2)[nH]c2c(Cl)ccc([N+](=O)[O-])c2c1=O [BD034] | 6.90 | 5.41 | 5.80 |  |  |  |  | 
